Reference: the NIST ThermoML archive (doi:10.1016/j.jct.2017.10.004)

Test: xn = mol fraction of the nth substance listed
Conditions: 100 kPa, Liquid; for electrical conductivity: Alternating current cell with electrodes; for viscosity: Capillary tube (Ostwald / Ubbelohde) method; for mass density: Vibrating tube method

Cn1cc[n+](C)c1.O=S(=O)([N-]S(=O)(=O)C(F)(F)F)C(F)(F)F [1,3-dimethylimidazolium bis((trifluoromethyl)sulfonyl)amide] + O=C1CCCO1
Conditions	electrical conductivity [S/m]	mass density [kg/m3]	viscosity [mPa·s]
298.15 K, x1 = 0.05124	1.13	1190.03	2.27
298.15 K, x1 = 0.09948	1.58	1240.94	2.86
298.15 K, x1 = 0.1551	1.75	1289.73	3.61
298.15 K, x1 = 0.2007	1.77	1323.77	4.44
298.15 K, x1 = 0.2991	1.73	1383.3	6.56
298.15 K, x1 = 0.4002	1.6	1430.37	9.39
298.15 K, x1 = 0.4998	1.47	1467.09	12.79
298.15 K, x1 = 0.6127	1.29	1500.46	17.69
298.15 K, x1 = 0.7009	1.17	1522	22.05
298.15 K, x1 = 0.8002	1.05	1542.63	27.52
298.15 K, x1 = 0.8997	0.905	1560.16	33.41
298.15 K, x1 = 1	0.774	1575.42	39.43
303.15 K, x1 = 0.05124	1.22	1185.01	2.08
303.15 K, x1 = 0.09948	1.72	1235.89	2.61
303.15 K, x1 = 0.1551	1.9	1284.67	3.24
303.15 K, x1 = 0.2007	1.94	1318.66	4
303.15 K, x1 = 0.2991	1.9	1378.16	5.81
303.15 K, x1 = 0.4002	1.76	1425.2	8.35
303.15 K, x1 = 0.4998	1.63	1461.93	11.04
303.15 K, x1 = 0.6127	1.45	1495.28	15.09
303.15 K, x1 = 0.7009	1.32	1516.83	18.61
303.15 K, x1 = 0.8002	1.19	1537.44	22.9
303.15 K, x1 = 0.8997	1.04	1554.97	27.66
303.15 K, x1 = 1	0.915	1570.25	32.51
308.15 K, x1 = 0.05124	1.32	1180.03	1.85
308.15 K, x1 = 0.09948	1.85	1230.85	2.39
308.15 K, x1 = 0.1551	2.06	1279.57	3.02
308.15 K, x1 = 0.2007	2.09	1313.53	3.62
308.15 K, x1 = 0.2991	2.07	1372.98	5.23
308.15 K, x1 = 0.4002	1.93	1419.99	7.3
308.15 K, x1 = 0.4998	1.79	1456.71	9.7
308.15 K, x1 = 0.6127	1.61	1490.05	12.98
308.15 K, x1 = 0.7009	1.47	1511.6	16
308.15 K, x1 = 0.8002	1.34	1532.21	19.53
308.15 K, x1 = 0.8997	1.18	1549.75	23.46
308.15 K, x1 = 1	1.06	1565.01	27.47
313.15 K, x1 = 0.05124	1.4	1175.06	1.71
313.15 K, x1 = 0.09948	1.98	1225.8	2.2
313.15 K, x1 = 0.1551	2.19	1274.45	2.77
313.15 K, x1 = 0.2007	2.25	1308.37	3.3
313.15 K, x1 = 0.2991	2.23	1367.77	4.7
313.15 K, x1 = 0.4002	2.09	1414.76	6.5
313.15 K, x1 = 0.4998	1.95	1451.46	8.6
313.15 K, x1 = 0.6127	1.76	1484.8	11.46
313.15 K, x1 = 0.7009	1.61	1506.34	13.89
313.15 K, x1 = 0.8002	1.48	1526.95	16.86
313.15 K, x1 = 0.8997	1.32	1544.49	20.08
313.15 K, x1 = 1	1.2	1559.73	23.43
318.15 K, x1 = 0.05124	1.5	1170.08	1.62
318.15 K, x1 = 0.09948	2.12	1220.75	2.04
318.15 K, x1 = 0.1551	2.35	1269.35	2.57
318.15 K, x1 = 0.2007	2.42	1303.25	3.03
318.15 K, x1 = 0.2991	2.4	1362.59	4.27
318.15 K, x1 = 0.4002	2.25	1409.55	5.81
318.15 K, x1 = 0.4998	2.12	1446.23	7.64
318.15 K, x1 = 0.6127	1.92	1479.57	10.05
318.15 K, x1 = 0.7009	1.77	1501.11	12.18
318.15 K, x1 = 0.8002	1.65	1521.73	14.75
318.15 K, x1 = 0.8997	1.49	1539.27	17.45
318.15 K, x1 = 1	1.35	1554.49	20.25
323.15 K, x1 = 0.05124	1.59	1165.1	1.52
323.15 K, x1 = 0.09948	2.25	1215.71	1.89
323.15 K, x1 = 0.1551	2.51	1264.27	2.39
323.15 K, x1 = 0.2007	2.59	1298.14	2.79
323.15 K, x1 = 0.2991	2.59	1357.45	3.89
323.15 K, x1 = 0.4002	2.45	1404.4	5.3
323.15 K, x1 = 0.4998	2.31	1441.07	6.82
323.15 K, x1 = 0.6127	2.11	1474.41	8.92
323.15 K, x1 = 0.7009	1.96	1495.96	10.71
323.15 K, x1 = 0.8002	1.82	1516.59	12.9
323.15 K, x1 = 0.8997	1.67	1534.13	15.17
323.15 K, x1 = 1	1.51	1549.34	17.72
